Test results taken from patent publication US9101588B2, “Composition for lowering blood uric acid level” (TAISHO PHARMACEUTICAL CO., LTD., priority 2009, dated 2015).

How the values were obtained:
Format in all cases: in vivo, human
[1] = tested on: subjects thought to have lifestyle diseases; assay: Test Example 1: randomized double blind test, change in uric acid level, powder of Example 1 vs placebo, 14 days; settings: for uric acid level degree changed MAX / uric acid level degree changed MEDIAN / uric acid level degree changed MIN / uric acid level degree changed MEAN: start to completion
Method: (§1) Forty subjects who were 20 years old or older and thought to have lifestyle diseases under the following conditions were grouped into 2 each consisting of 20 subjects. A placebo and the powder prepared in Example 1 were administered to the respective groups twice a day by 2.04 g (2000 mg in terms of taurine amount) in a single dose for 14 days. The change in the uric acid level was checked by a randomized double blind test.
Before this test was started, screening tests were conducted twice. Subjects who met all the conditions of Conditions 1 to 3 below in the first screening test were subjected to the second screening. Further, since the amount of taurine in the body seemed to influence the result of this test, subjects who met Condition 4 in addition to Conditions 1 to 3 in the second screening test were subjected to this test. In each administration group, the result was sub-grouped with a benchmark of the uric acid level of 7.0 mg/dL which served as the index for hyperuricemia. The uric acid levels were compared between the groups.
Incidentally, one case which was assigned to the taurine-administered group was terminated because another disease occurred before the administration was started.
Condition 1: LDL cholesterol was 140 mg/dL or above
Condition 2: triglyceride was 150 mg/dL or above but below 400 mg/dL
Condition 3: total cholesterol was 220 mg/dL or above
Condition 4: an amount of urinary taurine excreted (in urine collected for 24 hours) was 1500 μmol or below
In addition, each administration group was sub-grouped with a benchmark of the uric acid level of 7.0 mg/dL at the start, and the percentage of change in the uric acid level was compared in each group.

[2] = tested on: subjects thought to have hyperuricemia; assay: Test Example 3: randomized double blind test, serum uric acid level and uric acid clearance value, powder of Example 1 vs placebo, 14 days; settings: 1 hour before administration at start vs 3 hours before administration at completion, 2000 mg taurine twice a day, FIG. 1
[3] = tested on: subjects thought to have hyperuricemia; assay: as above
Method: as §1, with “Sixteen subjects” for “Forty subjects”, “have hyperuricemia” for “have lifestyle diseases”, “of 8” for “of 20”
Before this test was started, screening tests were conducted twice. Subjects who met the condition of Condition below in the first screening test were subjected to the second screening. Subjects who met Condition again in the second screening test were subjected to this test. Furthermore, in this test, in order to check the change in a uric acid clearance value that would influence the change in the uric acid level, the uric acid level and the uric acid clearance value were measured four times, that is, 1 hour before administration, 1 hour after administration, 2 hours after administration, and 3 hours after administration when the taurine administration was started as well as similarly four times when the administration was completed. It should be noted that in order to make conditions equal between when the administration was started and when completed, the subjects were stayed in a hospital 3 days and 2 nights before each measurement, and had the same meals.
Incidentally, one case which was assigned to the taurine-administered group was terminated because another disease occurred during the 14-day administration period.
Condition: serum uric acid level was 7.0 mg/dL or above but below 9.0 mg/dL
In addition, as in Test Examples 1 and 2, each administration group was sub-grouped with a benchmark of the uric acid level of 7.0 mg/dL at the start. The percentage of change in the uric acid level was compared in each group.
Next, the change (ratio of change) in the uric acid clearance value, when the administration was started, representing uric acid-excretion efficiency was compared between the administration groups.
Moreover, the change (ratio of change) in the uric acid clearance value when the administration was completed was also compared between the administration groups.

[4] = tested on: subjects of Test Examples 1 to 3; assay: Taurine-administered cases of Test Examples 1 to 3 summed, degree of uric acid level changed; settings: for uric acid level degree changed MAX / uric acid level degree changed MEDIAN / uric acid level degree changed MIN / uric acid level degree changed MEAN: start to completion; for mean value of uric acid level decreased by / median of uric acid level decreased by: Table 6
Method: Next, degrees of serum uric acid levels changed before and after the administration in the taurine-administered cases of Test Examples 1 to 3 were lined up in the order of subjects having higher levels before the administration.
Moreover, the taurine-administered cases of Test Examples 1 to 3 were summed and sub-grouped with a benchmark of the uric acid level of 7.0 mg/dL at the start. Degrees of uric acid levels changed were compared between the sub-groups.

[5] = start level 7.0 mg/dL or above, 8 cases
[6] = start level 7.0 mg/dL or above, 8 cases, at completion (14 days)
[7] = start level 7.0 mg/dL or above, 8 cases, at start
[8] = start level below 7.0 mg/dL, 11 cases
[9] = start level below 7.0 mg/dL, 11 cases, at completion (14 days)
[10] = start level below 7.0 mg/dL, 11 cases, at start
[11] = subjects with uric acid level 7.0 mg/dL or above, Table 1
[12] = subjects with uric acid level below 7.0 mg/dL, Table 1
[13] = start level 7.0 mg/dL or above, 4 cases
[14] = start level below 7.0 mg/dL, 3 cases
[15] = start level 7.0 mg/dL or above, 60 cases, at completion
[16] = start level 7.0 mg/dL or above, 60 cases, at start
[17] = start level 7.0 mg/dL or above, 60 cases
[18] = start level below 7.0 mg/dL, 87 cases, at completion
[19] = start level below 7.0 mg/dL, 87 cases, at start
[20] = start level below 7.0 mg/dL, 87 cases
[21] = subjects with uric acid level 7.0 mg/dL or above
[22] = subjects with uric acid level below 7.0 mg/dL

NCCS(=O)(=O)O [Taurine, aminoethylsulfonic acid]
Change in uric acid level: subjects who did not show decrease [1, 5]: 0 (0.0) ( ): % | Change in uric acid level: subjects who showed decrease [1, 5]: 8 (100.0) ( ): % | uric acid level MAX [1, 6]: 8.3 mg/dL | uric acid level MEAN [1, 6]: 7.36 mg/dL | uric acid level MEDIAN [1, 6]: 7.50 mg/dL | uric acid level MIN [1, 6]: 6.4 mg/dL | uric acid level MAX [1, 7]: 9.1 mg/dL | uric acid level MEDIAN [1, 7]: 8.30 mg/dL | uric acid level MIN [1, 7]: 7.0 mg/dL | uric acid level MEAN ([1]; start level 7.0 mg/dL or above, 8 cases, at start, 2000 mg taurine twice a day, 14 days): 8.11 mg/dL | Change in uric acid level: subjects who showed decrease ([1]; start level 7.0 mg/dL or above, 8 cases, listed as taurine): 8 ( ): % | uric acid level degree changed MAX [1, 5]: -0.3 mg/dL | uric acid level degree changed MEDIAN [1, 5]: -0.70 mg/dL | uric acid level degree changed MIN [1, 5]: -1.3 mg/dL | uric acid level degree changed MEAN ([1]; start level 7.0 mg/dL or above, 8 cases, one-sample t-test P < 0.001): -0.75 mg/dL | two-sample t-test estimation: difference in degree changed, taurine group vs placebo group ([1]; start level 7.0 mg/dL or above, 95% CI −1.42 to −0.15, P = 0.020): −0.78[−1.42 mg/dL | Change in uric acid level: subjects who did not show decrease [1, 8]: 6 (54.5) ( ): % | Change in uric acid level: subjects who showed decrease [1, 8]: 5 (45.5) ( ): % | uric acid level MAX [1, 9]: 6.5 mg/dL | uric acid level MEAN [1, 9]: 5.49 mg/dL | uric acid level MEDIAN [1, 9]: 5.9 mg/dL | uric acid level MIN [1, 9]: 1.1 mg/dL | uric acid level MAX [1, 10]: 6.8 mg/dL | uric acid level MEAN [1, 10]: 5.54 mg/dL | uric acid level MEDIAN [1, 10]: 5.9 mg/dL | uric acid level MIN [1, 10]: 0.8 mg/dL | uric acid level degree changed MAX [1, 8]: 0.5 mg/dL | uric acid level degree changed MEDIAN [1, 8]: 0.1 mg/dL | uric acid level degree changed MIN [1, 8]: -0.9 mg/dL | uric acid level degree changed MEAN ([1]; start level below 7.0 mg/dL, 11 cases, one-sample t-test P = 0.747): -0.05 mg/dL | two-sample t-test estimation: difference in degree changed, taurine group vs placebo group ([1]; start level below 7.0 mg/dL, 95% CI −0.44 to 0.18, P = 0.386): −0.13[−0.44 mg/dL | mean value of uric acid level decreased by [1, 11]: 0.75 mg/dL | median of uric acid level decreased by [1, 11]: 0.70 mg/dL | mean value of uric acid level decreased by [1, 12]: 0.05 mg/dL | median of uric acid level increased by [1, 12]: 0.1 mg/dL | two-sample t-test estimation: difference in degree changed between sub-groups ([1]; taurine group, 7.0 mg/dL or above vs below 7.0 mg/dL, 95% CI −1.09 to −0.31, P = 0.001): −0.70[−1.09 mg/dL | mean value of serum uric acid level decreased by [2]: 0.53 mg/dL | Change in uric acid level: subjects who did not show decrease [3, 13]: 0 (0.0) ( ): % | Change in uric acid level: subjects who showed decrease [3, 13]: 4 (100.0) ( ): % | Change in uric acid level: subjects who showed decrease ([3]; start level 7.0 mg/dL or above, 4 cases, listed as taurine): 4 ( ): % | Change in uric acid level: subjects who did not show decrease [3, 14]: 1 (33.3) ( ): % | Change in uric acid level: subjects who showed decrease [3, 14]: 2 (66.7) ( ): % | uric acid clearance value, mean ratio of change (increase) ([3]; when the administration was completed, 2 hours after the administration, FIG. 3): ≥ 30% | uric acid clearance value, mean ratio of change (increase) ([3]; when the administration was completed, 3 hours after the administration, FIG. 3): ≥ 20% | uric acid clearance value, mean ratio of change (increase) ([3]; when the administration was started, 2 hours after the administration, FIG. 2): ≥ 40% | uric acid clearance value, mean ratio of change (increase) ([3]; when the administration was started, 3 hours after the administration, FIG. 2): ≥ 30% | two-sample t-test estimation: difference in degree changed between sub-groups ([4]; 7.0 mg/dL or above vs below 7.0 mg/dL, 95% CI −0.69 to −0.30, P < 0.001): −0.49[−0.69 mg/dL | uric acid level after oral administration (conclusion) ([4]; results of Test Examples 1 to 3): significant decrease | uric acid level MAX [4, 15]: 10.6 mg/dL | uric acid level MEAN [4, 15]: 7.33 mg/dL | uric acid level MEDIAN [4, 15]: 7.35 mg/dL | uric acid level MIN [4, 15]: 4.6 mg/dL | uric acid level MAX [4, 16]: 10.8 mg/dL | uric acid level MEDIAN [4, 16]: 7.80 mg/dL | uric acid level MIN [4, 16]: 7.0 mg/dL | uric acid level MEAN ([4]; start level 7.0 mg/dL or above, 60 cases, at start, Test Examples 1 to 3 summed): 7.95 mg/dL | uric acid level degree changed MAX [4, 17]: 0.7 mg/dL | uric acid level degree changed MEDIAN [4, 17]: -0.60 mg/dL | uric acid level degree changed MIN [4, 17]: -2.6 mg/dL | uric acid level degree changed MEAN ([4]; start level 7.0 mg/dL or above, 60 cases, one-sample t-test P < 0.001): -0.62 mg/dL | uric acid level MAX [4, 18]: 7.6 mg/dL | uric acid level MEAN [4, 18]: 5.54 mg/dL | uric acid level MEDIAN [4, 18]: 5.5 mg/dL | uric acid level MIN [4, 18]: 1.1 mg/dL | uric acid level MAX [4, 19]: 6.9 mg/dL | uric acid level MEAN [4, 19]: 5.67 mg/dL | uric acid level MEDIAN [4, 19]: 5.8 mg/dL | uric acid level MIN [4, 19]: 0.8 mg/dL | uric acid level degree changed MAX [4, 20]: 1.0 mg/dL | uric acid level degree changed MEDIAN [4, 20]: -0.1 mg/dL | uric acid level degree changed MIN [4, 20]: -1.6 mg/dL | uric acid level degree changed MEAN ([4]; start level below 7.0 mg/dL, 87 cases, one-sample t-test P = 0.028): -0.13 mg/dL | mean value of uric acid level decreased by [4, 21]: 0.62 mg/dL | median of uric acid level decreased by [4, 21]: 0.60 mg/dL | mean value of uric acid level decreased by [4, 22]: 0.13 mg/dL | median of uric acid level decreased by [4, 22]: 0.1 mg/dL
